Among the data in patent EP1202628B1, “NOVEL HYPOXANTHINE AND THIOHYPOXANTHINE COMPOUNDS” (EURO-CELTIQUE S.A., priority 1999, dated 2001) are IC50 values, retold here.

In this test the target is T1, PDE V (Homo sapiens, UniProt O76074).
T1 construct: Fractions that contain PDE V are pooled and dialyzed overnight; from tissue
Put plainly: Type V phosphodiesterase inhibition (hydrolysis of [3H]-cyclic GMP). The class given is biochemical. The settings on record: enzyme isolated from platelets. As to the method: Protocol for Enzyme Isloation: The Type V PDE is isolated using a procedure similar to that previously described by Weishaar et al., Hypertension 15:528, (1990). Briefly, 1-2 units of platelets are suspended in an equal volume of buffer A (20 mM Tris-HCl, pH 7.5, containing 2 mM magnesium acetate, I mM dithiothreitol, and 5 mM Na2EDTA) using a polytron. The proteinase inhibitor phenylmethylsulfonyl fluoride (PMSF) are also included in this buffer at a final concentration of 200 uM. This and all subsequent procedures are performed at 0-4°C. The homogenate is then centrifuged at 100,000 rpm for 60 minutes. The supernatant is then removed and filtered through four layers of gauze and applied to a DEAE-Trisacryl M column. The column is washed with several bed volumes of buffer B (20 mM Tris-HCl, pH 7.5, containing 2 mM magnesium acetate, 1 mM dithiothreitol, and […]) and eluted by two successive linear NaCl gradients (0.05-0.15 M, 300 ml total; 0.15-0.40 M, 200 ml total). Five ml fractions are collected and assayed for cyclic AMP and cyclic GMP PDE activity. Fractions that contain PDE V are pooled and dialyzed overnight against 4 L of buffer C (20 mM Tris-HCl, pH 7.5, containing 2 mM magnesium acetate and proteinase inhibitors). The dialyzed PDE V is then concentrated to 10% of the original volume, diluted to 50% with ethylene glycol monoethyl ether and stored at -20°C. PDE V can typically be retained for up to four weeks with little or no loss of activity.
Measuring Type V PDE Activity: Enzyme activity is assessed by measuring the hydrolysis of [^3H]-cyclic GMP, as described by Thompson et al. (Thompson, W.J., Teraski, W.L., Epstein, P.N., Strada, S.J.: Adv. Cyclic Nucleotide Res. 10:69, 1979). The cyclic GMP concentration used in this assay is 0.2 uM, which approximates to the Km value. Protein concentration is adjusted to ensure that no more than 15% of the available substrate is hydrolyzed during the incubation period.
All test compounds are dissolved in dimethyl sulfoxide (final concentration of 2.5%). This concentration of dimethyl sulfoxide inhibits enzyme activity by approximately 10%. The reference Type V PDE inhibitor zaprinast is evaluated with each assay.
The compounds are tested over concentration range: 0.1, 1, 10, 100 uM (n=1), and IC50 determinations are made using 5 appropriate concentrations (n=2).
`COc1ccc(Cn2cnc(=O)c3[nH]c(C(C)C)nc32)cc1OC` [3-(3,4-Dimethoxy-benzyl)-8-(1-methyl-ethyl)-hypoxanthine]: inhibition was half-maximal at 10.6 µM (IC50). This lies in the double-digit micromolar range.
With `COc1ccc(Cn2cnc(=O)c3[nH]c(C(C)(C)OCc4ccc(F)cc4)nc32)cc1OC` [3-(3,4-Dimethoxybenzyl)-8-(1-(4-fluorobenzyloxy)-1-methyl-ethyl)-hypoxanthine] the figure was 35.8 µM; with `CC(C)c1nc2c([nH]1)c(=O)ncn2Cc1cccc(Cl)c1` [3-(3-Chloro-benzyl)-8-(1-methyl-ethyl)-hypoxanthine], 6.32 µM; with `COc1ccc(Cn2cnc(=O)c3[nH]c(C(C)(C)OCc4ccc(F)cc4)nc32)cc1OC1CCCC1` [3-(3-Cyclopentyloxy-4-methoxy-benzyl)-8-(1-(4-fluorobenzyloxy)-1-methyl-ethyl)-hypoxanthine], 14.5 µM.
The same measure for `COc1ccc(Cn2cnc(=O)c3[nH]c(C(C)(C)O)nc32)cc1OC1CCCC1` [3-(3-Cyclopentyloxy-4-methoxy-benzyl)-8-(1-hydroxy-1-methyl-ethyl)-hypoxanthine]: 193 µM; for `COc1ccc(Cn2cnc(=O)c3[nH]c(C(C)C)nc32)cc1OC1CCCC1` [3-(3-Cyclopentyloxy-4-methoxy-benzyl)-8-isopropyl-hypoxanthine]: 49 µM.
The same measure for `COc1ccc(Cn2cnc(=O)c3[nH]c(C(C)(C)OCc4ccccc4)nc32)cc1OCc1ccccc1` [3-(3-benzyloxy-4-methoxy-benzyl)-8-(1-benzyloxy-1-methyl-ethyl)-hypoxanthine]: 12.5 µM; for `CC(C)c1nc2c([nH]1)c(=O)ncn2Cc1ccc(Cl)cc1` [3-(4-Chloro-benzyl)-8-(1-methyl-ethyl)-hypoxanthine]: 7.6 µM; for `COc1ccc(Cn2cnc(=O)c3[nH]c(C(C)(C)OCc4ccccc4)nc32)cc1OC` [8-(1-Benzyloxy-1-methyl-ethyl)-3-(3,4-dimethoxybenzyl)-hypoxanthine]: 10 µM.
Take `COc1ccc(Cn2cnc(=O)c3[nH]c(C(C)(C)OCc4ccccc4)nc32)cc1OC1CCCC1` [8-(1-benzyloxy-1-methyl-ethyl)-3-(3-cyclopentyloxy-4-methoxy-benzyl)-hypoxanthine]: the IC50 (as a rule, the midpoint of a concentration-inhibition curve) was 8.28 µM. The IC50 values of the last two compounds are within 1.5-fold of each other.
With `COc1ccc(Cn2cnc(=O)c3[nH]c(COCc4ccccc4)nc32)cc1OC1CCCC1` [8-Benzyloxymethyl-3-(3-cyclopentyloxy-4-methoxy-benzyl)-hypoxanthine] the figure was 7.53 µM.
